Experimental data reported in patent US8435975B2, “Steroidal esters of 17-oximino-5-androsten-3beta-ol” (Council of Scientific & Industrial Research, priority 2007, dated 2013).
Values joined by “and” are separate entries in the source; they are usually repeats but may differ in a detail not shown here. Equal entries are not always repeated. “Also recorded” adds a separate entry of the source.

How the values were obtained:
[1] = test system: human prostate cancer cell line (DU-145); assay: Growth inhibitory activity assay (MTT assay), in vitro antiproliferative activity; assay type: cell-based; conditions: DU-145 cells; for % growth inhibition (mean ± SEM) / inhibition at 0.01 µg/mL / inhibition at 0.5 µg/mL / inhibition at 1 µg/mL / inhibition at 2 µg/mL / inhibition at 5 µg/mL: 48 hr; for antiproliferative activity (in words): 0.01-5.0 μg/ml; for inhibition at 0.01 µg/mL / inhibition at 0.5 µg/mL / inhibition at 1 µg/mL / inhibition at 2 µg/mL / inhibition at 5 µg/mL: Homo sapiens, DU-145, 48 h, read-out: % growth inhibition (mean ± SEM)
Protocol: 1) In Vitro Antiproliferative Activity Against Human Prostate Cancer Cell Line (DU-145)
Compounds were screened for antiproliferative activity on human prostate cell line DU-145 at National Centre of Human Genome Studies and Research. Panjab University, Chandigarh. All the compounds (10 to 16), Finasteride and starting material (9) were tested at five different concentrations: 0.01, 0.5, 1.0, 2.0, and 5.0 μg/ml. Finasteride was the positive control in this growth inhibitory assay.
Growth Inhibitory Activity Assay (MTT Assay)
We investigated the effect of newly synthesized compounds on cell growth inhibition using MTT assay. This assay quantifies the viable cells by observing the reduction of tetrazolium salt, MTT to formazan crystals by the live cells. Based on the absorbance of the cell sample after the test is carried out, cell viable can be measured [Loveland, B. E.; Jones, T. G.; Mackay. I. R.; Vaillant, F.; Wang, Z. X.; Hertzog, P. J. Biochem. International 1992, 27, 501 and Wright, S. A.; Thomas, L. N.; Douglas, R. C.; Lazier, C. B.; Rittmaster, R. S. J. Clin. Invest. 1996, 98, 2558]. Cells were cultured at a density of 5×10^3 cells/well in 96 well plates at 37° C. in 5.0% CO2 atmosphere and were allowed to attach for 24 hr. The cells were treated in triplicate with graded concentration of sample and reference drug Finasteride at 37° C. for 48 hr. A 20 μl aliquot of MTT solution was added directly to all the appropriate wells. Following 4 hr of incubation at […], the media was removed and formazan crystals, which results from the reduction of MTT by active cell were dissolved in 100 μl DMSO and vigorously mixed to dissolve the reacted dye. The absorbance of each well was read on Elisa plate reader (Merck) at 570 nm. The spectrometer was calibrated to zero absorbance using culture medium without cells. The relative cell viability (%) related to control well containing cell culture medium without drug was calculated by [A]test/[A]control×100. % Growth Inhibition=[OD]control−[OD]test/[OD]control×100 Results: […]

5α-reductase = assay: In vivo effect on serum testosterone level (5α-reductase inhibitory activity), ELISA; design: species or system Sprague Dawley rats; conditions: for Serum levels of Testosterone, T: Sprague Dawley male rats, intraperitoneal, Finasteride 40 mg/kg and equimolar dose of compounds, 6 hr after treatment; for effect on serum testosterone level (in words): rats, 6 hr post dose, compared to control
Protocol: Animals (Sprague Dawley male rats weighing 150-200 g) were divided into 3 groups; vehicle (control), Finasteride (standard), treated (test sample) and each group consist of 5 animals. Sprague Dawley rats were treated intraperitoneally with Finasteride 40 mg/kg and equimolar dose of compounds. After 6 hr of treatment, blood was withdrawn by cardiac puncture under diethyl ether anesthesia and serum was separated from cells by centrifugation. Plasma testosterone values were obtained by ELISA plate reader at […] and are given in ng/ml.
The aliquots of 50 μl of each of standards, control and unknown (serum samples) were added to Testosterone Antibody coated wells. 100 μl of HRP-testosterone conjugate was added to all the wells and the plates were shaken gently on a shaker for proper mixing of the reagents. Following 4 hr of incubation at 37° C., the incubation mixture was removed. The wells were washed with phosphate buffer for 5-6 times (200 μl each time), followed by addition of 100 μl of TMB/H2O2 substrate in each of the wells. The plates were further incubated at 37° C. for 20 minutes. At the end of incubation reaction was stopped by using 100 μl of 0.5 M H2SO4 as stopping reagent. The absorbance of each well was read on Elisa plate reader at 450 nm [Rassaie, M. J.; Kumari, G. L.; Pandey, P. K.; Gupta, N.; Kochupillai, N.; Grover, P. K. Steroids 1992, 57, 288 and Hosoda, H.; Yoshida, H.; Sakai, Y.; Miyairi, S.; Nambara, T. Chem. Pharm. Bull. 1980, 28, 3035]
Intact male rats (Sprague Dawley, 200-250 g) were used in the designed study in which various compounds were compared for in vivo 5α-reductase inhibitory potency, as judged by the their ability to attenuate the conversion of testosterone into dihydrotestosterone (DHT). […] The procedure measure T equally well, and method met all the requirement of precision, accuracy, sensitivity and selectivity.

[2] = In vitro cytotoxicity using mouse macrophages (acute toxicity), MTT assay; assay type: cell-based; conditions: both sexes, Balb C; mouse macrophages, from linear equation of MTT data; read-out: LC50 (concentration lethal to 50% population of cells)
Protocol: (§1) All steroids were dissolved in ethanol and diluted to appropriate concentration: 0.01, 0.5, 1.0, 2.0, 5.0 μg/ml from the two stock solution of 1 mg/ml and […]. Stocks were maintained at room temperature.
(§2) […] Approximately 1 ml of Phosphate buffer saline preincubated at 37° C. was injected into cavity. The abdomen was lavaged for 10 min and fluid along with macrophages were taken out using a syringe into polypropylene tube. The phosphate solution was spun at 800 rpm for 5-10 min and cells were resuspended in 1 ml RPMI media. Cell number was counted using haemocytometer.
(§3) Cells (mouse macrophages) were plated at a density of 5×10^3 cells/well in 96 plate at 37° C. in 5% CO2. Cells were exposed in graded concentration of compounds at designated various concentration. Each concentration was tested in triplicate wells. After 48 hr fresh MTT 20 μl (1 mg/ml) was added directly to all the wells and culture was incubated for 4 hr at 37° C. During this incubation, MTT was converted into a water insoluble formazan complex by metabolic activity of viable cells. Formazan crystal were taken and dissolved in 100 μl of DMSO, which give light pink colour. The absorbance of each well was read on Elisa plate reader (Merck) at 570 nm. The spectrometer was calibrated to zero absorbance using culture medium without cells. The relative cell viability (%) related to control well containing cell culture medium without drug was calculated by [A]test/[A]control×100. % Cell Viability=[A]test/[A]control×100 [A]test=absorbance test sample [A]control=absorbance control sample Results: LC50: Concentration of the Compound in μg/ml (μm), Lethal to 50% Population of Cells.
(§4) The assay quantifies the viable cells, after […] incubation of cells with five different concentrations.

[3] = test system: mouse macrophages (Balb C); assay: as above; assay type: cell-based
Protocol: as §1, §2, §3, §4

[4] = both, Balb C, mouse, 48 h, 0.01 μg/ml
[5] = both, Balb C, mouse, 48 h, 0.5 μg/ml
[6] = both, Balb C, mouse, 48 h, 1 μg/ml
[7] = both, Balb C, mouse, 48 h, 2 μg/ml
[8] = both, Balb C, mouse, 48 h, 5 μg/ml

Structure (SMILES) | % growth inhibition (mean ± SEM) ([1]; 5.0 μg/ml) | antiproliferative activity (in words) [1] | inhibition at 0.01 µg/mL ([1]; 0.01 μg/ml) | inhibition at 0.5 µg/mL ([1]; 0.5 μg/ml) | inhibition at 1 µg/mL ([1]; 1.0 μg/ml) | inhibition at 2 µg/mL ([1]; 2.0 μg/ml) | inhibition at 5 µg/mL ([1]; 5.0 μg/ml) | Serum levels of Testosterone, T (5α-reductase) | effect on serum testosterone level (in words) (5α-reductase) | CC50 at 48 h [2] | % viable Cells (mean ± SEM) [3, 4] | % viable Cells (mean ± SEM) [3, 5] | % viable Cells (mean ± SEM) [3, 6] | % viable Cells (mean ± SEM) [3, 7] | % viable Cells (mean ± SEM) [3, 8] | further results
C[C@]12CC[C@H](OC(=O)c3ccc(Cl)cc3)CC1=CC[C@@H]1[C@@H]2CC[C@]2(C)C(=NO)CC[C@@H]12 [Compound 10, 17-oximino-5-androsten-3β-yl 4-chlorobenzoate] | 84.47 ± 0.74% | relatively less activity than above compounds but still better than Finasteride | 43.4 ± 0.77% | 57.1 ± 5.96% | 64.9 ± 7.4% | 69.2 ± 7.48% | 81 to 84% | 0.95 ng/mL | loss of activity | 24 µM | 88.22 ± 0.41% | 87.21 ± 0.46% | 77.40 ± 0.43% | 77.14 ± 0.21% | 73.149 ± 0.13% | –
C[C@]12CC[C@H](OC(=O)c3ccc([N+](=O)[O-])cc3)CC1=CC[C@@H]1[C@@H]2CC[C@]2(C)C(=NO)CC[C@@H]12 [Compound 11, 17-oximino-5-androsten-3β-yl 4-nitrobenzoate] | 81.53 ± 1.79% | relatively less activity than above compounds but still better than Finasteride | 41.5 ± 0.71% | 60.5 ± 4.9% | 67.3 ± 3.7% | 74 ± 0.77% | 81 to 84% | 1.01 ng/mL | loss of activity | 19.5 µM | 88.79 ± 0.19% | 86.50 ± 0.107% | 76.74 ± 0.107% | 76.30 ± 0.46% | 75.85 ± 0.259% | –
Cc1ccc(C(=O)O[C@H]2CC[C@@]3(C)C(=CC[C@@H]4[C@@H]3CC[C@]3(C)C(=NO)CC[C@@H]43)C2)cc1 [Compound 12, 17-oximino-5-androsten-3β-yl 4-methylbenzoate] | 92.94 ± 0.13% | more potent than the reference Finasteride | 42.6 ± 2.21% | 63 ± 4.78% | 85 ± 3.99% | 89.5 ± 0.96% | > 90% | 1.16 ng/mL | increased activity | 22 µM | 79.39 ± 0.77% | 77.46 ± 0.75% | 73.03 ± 0.36% | 69.10 ± 0.84% | 65.26 ± 2.79% | –
C[C@]12CC[C@H](OC(=O)c3ccccc3)CC1=CC[C@@H]1[C@@H]2CC[C@]2(C)C(=NO)CC[C@@H]12 [Compound 13, 17-oximino-5-androsten-3β-yl benzoate] | 91.10 ± 2.10% | more potent than the reference Finasteride | 47 ± 1.67% | 48.9 ± 1.66% | 67.6 ± 1.62% | 85.9 ± 4.08% | > 90% | 1.05 ± 0.08 ng/mL and 1.05 ng/mL | – | 89.4 µM | – | – | – | – | – | % viable Cells (mean ± SEM) ([3]; mouse macrophages, 0.01 μg/ml): 87.71 ± 0.29%; % viable Cells (mean ± SEM) ([3]; mouse macrophages, 0.5 μg/ml): 84.74 ± 0.27%; % viable Cells (mean ± SEM) ([3]; mouse macrophages, 1.0 μg/ml): 83.61 ± 0.20%; % viable Cells (mean ± SEM) ([3]; mouse macrophages, 2.0 μg/ml): 83.85 ± 0.28%; % viable Cells (mean ± SEM) ([3]; mouse macrophages, 5.0 μg/ml): 82.99 ± 0.36%; toxicity to mouse macrophages (in words) ([3]; mouse macrophages, 0.01-5.0 μg/ml): non toxic to mouse macrophages
C[C@]12CC[C@H](OC(=O)c3ccc(N)cc3)CC1=CC[C@@H]1[C@@H]2CC[C@]2(C)C(=NO)CC[C@@H]12 [Compound 14, 17-oximino-5-androsten-3β-yl 4-aminobenzoate] | 91.02 ± 1.25% | more potent than the reference Finasteride | 71.8 ± 4.24% | 62.1 ± 11.4% | 79.5 ± 7.76% | 83.9 ± 6.7% | > 90% | 1.19 ng/mL | increased activity | 29.4 µM | 85.75 ± 0.28% | 77.69 ± 0.38% | 76.80 ± 0.23% | 75.82 ± 0.33% | 72.82 ± 0.28% | –
C[C@]12CC[C@H](O)CC1=CC[C@@H]1[C@@H]2CC[C@]2(C)C(=NO)CC[C@@H]12 [Parent Compound 9, 17-oximino-5-androsten-3β-ol] | Ni^a | not shown any significant inhibitory effect on cell proliferation; also recorded: not shown significant antiproliferative activity | – | – | – | – | – | – | – | – | – | – | – | – | – | % growth inhibition (mean ± SEM) ([1]; 0.01 μg/ml): Ni^a; % growth inhibition (mean ± SEM) ([1]; 0.5 μg/ml): Ni^a; % growth inhibition (mean ± SEM) ([1]; 1.0 μg/ml): Ni^a; % growth inhibition (mean ± SEM) ([1]; 2.0 μg/ml): Ni^a
